In US20050209162A1, “Methods for monitoring IL-18” (priority 2003, published 2005):

Tests used:
ICE = biological target: T1, ICE (Homo sapiens, UniProt P29466); test: ICE inhibition constant (Ki); format: biochemical
T1 sequence (P29466 120-297 limits assumed): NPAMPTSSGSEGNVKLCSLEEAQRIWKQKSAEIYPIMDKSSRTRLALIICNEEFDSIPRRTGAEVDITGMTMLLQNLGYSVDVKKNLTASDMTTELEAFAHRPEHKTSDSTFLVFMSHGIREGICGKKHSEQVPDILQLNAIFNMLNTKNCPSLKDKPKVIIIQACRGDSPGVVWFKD
T1 sequence (P29466 317-404 limits assumed): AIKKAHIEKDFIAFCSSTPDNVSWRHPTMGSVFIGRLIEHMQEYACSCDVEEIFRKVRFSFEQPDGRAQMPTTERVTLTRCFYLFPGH

[1] = Absorption and conversion to Compound B upon oral administration; format: in vivo; settings: converted into Compound B
IL-18 = test: Serum IL-18 levels (sandwich IL-18 ELISA) in healthy male subjects treated with oral Compound A for 14 days; format: in vivo, human; settings: 900 mg q8 h oral
Procedure: Compound A was evaluated in a double-blind, randomized, placebo-controlled, oral dose, sequential group study in healthy male subjects. 9 subjects received 900 mg Compound A 14 days. 3 subjects received placebo treatment. Doses were administered three times a day at 8-hour intervals on Days 1 to 13 inclusive, and once in the morning of Day 14. All doses were administered in the fasted state.
Blood samples (1×3.5 mL) were taken by venepuncture or cannulation of a forearm vein(s).
Blood samples were collected into 3.5 mL SST Vacutainer® tubes (Becton Dickinson UK Ltd., Oxford) and, after mixing, stored at ambient temperature for at least 30 min prior to centrifugation. The samples were centrifuged, within 1 hour of collection, at 1500 g for 10 minutes at approximately 4° C. For each sample, the separated serum was transferred into two 5 mL suitably labelled polypropylene tubes (at least 0.6 mL in each tube), and stored within 2 hours of collection, at approximately −70° C. the laboratory for IL-18 assay.
IL-18 was assayed using a sandwich IL-18 ELISA technique (Human IL-18 ELISA Kit, Medical and Biological Laboratories, Nagoya, Japan). Standards, Controls and Samples were incubated in wells coated with an anti-human IL-18 monoclonal antibody. […] The developed color was then measured at an OD of 450 using a 630 nm reference filter.

Row | SMILES | Type of ICE inhibition (ICE) | absorption upon oral administration [1] | inhibition of serum IL-18 concentrations (in words) (IL-18; 14-day treatment period) | inhibition at 900 mg (IL-18; Homo sapiens, 336 h, over 14 days of treatment, read-out: inhibition of serum IL-18 median levels) [%]
1 | CC(C)(C)[C@H](NC(=O)c1ccc(N)c(Cl)c1)C(=O)N1CCC[C@H]1C(=O)N[C@H](C=O)CC(=O)O [Compound B] | selective and reversible ICE inhibitor |  |  | 
2 | CCO[C@@H]1OC(=O)C[C@@H]1NC(=O)[C@@H]1CCCN1C(=O)[C@@H](NC(=O)c1ccc(N)c(Cl)c1)C(C)(C)C [Compound A] |  | rapidly absorbed | gradual but marked inhibition | ~60
